This passage reports IC50 results from US20070249590A1, “Substituted indolo[2,3-a]pyrrolo[3,4-c]carbazole compounds useful in treating kinase disorders” (priority 2005, published 2007).

Where only a bound is given, the exact number is not on record here.

The experiment addresses T1, JAK3 (JH1 and JH2 domain) (Homo sapiens, UniProt P52333).
T1 sequence (P52333 521-1111 limits assumed): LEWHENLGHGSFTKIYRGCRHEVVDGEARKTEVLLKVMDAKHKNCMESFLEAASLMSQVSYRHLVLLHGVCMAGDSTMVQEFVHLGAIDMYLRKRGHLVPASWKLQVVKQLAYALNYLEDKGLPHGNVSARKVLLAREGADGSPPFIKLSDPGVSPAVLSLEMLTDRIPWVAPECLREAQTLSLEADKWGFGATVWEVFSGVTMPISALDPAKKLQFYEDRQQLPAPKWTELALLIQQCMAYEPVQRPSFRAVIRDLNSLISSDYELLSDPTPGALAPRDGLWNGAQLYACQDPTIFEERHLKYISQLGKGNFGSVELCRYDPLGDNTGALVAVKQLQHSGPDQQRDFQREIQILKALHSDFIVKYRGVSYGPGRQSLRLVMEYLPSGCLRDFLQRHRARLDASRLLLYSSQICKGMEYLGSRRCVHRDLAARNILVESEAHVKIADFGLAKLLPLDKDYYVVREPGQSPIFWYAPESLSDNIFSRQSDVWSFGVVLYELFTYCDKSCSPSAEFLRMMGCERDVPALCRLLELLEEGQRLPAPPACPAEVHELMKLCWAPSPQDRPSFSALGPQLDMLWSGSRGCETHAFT
Kind of experiment: JAK3 Kinase Assay (ELISA of peptide substrate phosphorylation). Type of experiment: biochemical. The note with it: purified JAK3 enzyme, 10 μM ATP, biotinylated peptide substrate, 1 hour at room temperature. A digest of the protocol: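 Sf21-baculovirus-expressed JAK3 (JH1+JH2), glutathione-bead purified, with biotinylated peptide substrate (in buffer containing 10 μM ATP) in HEPES pH 7.5/MgCl2/DTT, 1 h RT. Product was captured on Neutravidin, detected with HRP anti-phosphotyrosine (PY99)/TMB, OD 450/650 nm. Triplicate 16-point half-log series from 200 μM gave IC50; otherwise % inhibition at 1 μM.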
In the case of `O=C(NCc1ccncc1)OC1Cn2c3ccccc3c3c4c(c5c6ccccc6n(c5c32)CC1O)C(=O)NC4=O` (centres unmarked) [Cpd 89, 12,13-{2-[(pyridin-4-yl-methyl)carbamoyloxy]-3-hydroxy-butan-1,4-yl}-12,13-dihydro-5,7-dioxo-6H-indolo[2,3-a]pyrrolo[3,4-c]carbazole], the IC50 came to 0.027 µM. With `CN(C)CCCN1CCN(C(=O)C2(O)Cn3c4ccccc4c4c5c(c6c7ccccc7n(c6c43)CC2O)C(=O)NC5=O)CC1` (centres unmarked) [Cpd 126, 12,13-(2-{[4-(3-dimethylamino-prop-1-yl)piperazin-1-yl]carbonyl}-2,3-dihydroxy-butan-1,4-yl)-12,13-dihydro-5,7-dioxo-6H-indolo[2,3-a]pyrrolo[3,4-c]carbazole], the IC50 is 0.055 µM. As to `CC(C)NC(=O)OCC1(O)Cn2c3ccccc3c3c4c(c5c6ccccc6n(c5c32)C1)C(=O)NC4` (centres unmarked) [Cpd 135, 12,13-[2-hydroxy-2-(isopropyl-carbamoyloxymethyl)-propan-1,3-yl]-6,7,12,13-tetrahydro-5-oxo-5H-indolo[2,3-a]pyrrolo[3,4-c]carbazole], the IC50 was more than 0.2 µM. Turning to `O=C(NCCCn1ccnc1)OC1CCn2c3ccccc3c3c4c(c5c6ccccc6n(c5c32)C1)C(=O)NC4=O` (centres unmarked) [Cpd 36, 12,13-{2-[(3-imidazol-1-yl-prop-1-yl)carbamoyloxy]-butan-1,4-yl}-12,13-dihydro-5,7-dioxo-6H-indolo[2,3-a]pyrrolo[3,4-c]carbazole], the IC50 was found to be 0.03 µM.

On to `O=C1NC(=O)c2c1c1c3ccccc3n3c1c1c2c2ccccc2n1CC(OC(=O)N1CCCNCC1)CC3` (centres unmarked) [Cpd 60, 12,13-{2-[(hexahydro-1H-1,4-diazepin-1-yl)carbonyloxy]-butan-1,4-yl}-12,13-dihydro-5,7-dioxo-6H-indolo[2,3-a]pyrrolo[3,4-c]carbazole], for which the IC50 is 0.156 µM. As for `O=C1NC(=O)c2c1c1c3ccccc3n3c1c1c2c2ccccc2n1CC(O)(C(=O)N1CCN(CC(=O)N2CCCC2)CC1)C(O)C3` (centres unmarked) [Cpd 133, 12,13-(2-{[4-(pyrrolidin-1-yl-carbonylmethyl)piperazin-1-yl]carbonyl}-2,3-dihydroxy-butan-1,4-yl)-12,13-dihydro-5,7-dioxo-6H-indolo[2,3-a]pyrrolo[3,4-c]carbazole], the IC50 was 0.054 µM. Take `CC(C)OCc1ccc2c(c1)c1c3c(c4c5cc(COC(C)C)ccc5n5c4c1n2CC(CO)C5)C(=O)NC3` (centres unmarked) [Cpd 210, 3,9-bis-(isopropoxymethyl)-12,13-(2-hydroxymethyl-propan-1,3-yl)-6,7,12,13-tetrahydro-5-oxo-5H-indolo[2,3-a]pyrrolo[3,4-c]carbazole]: the IC50 was determined as 1.05 µM. As for `O=C(NCCCn1ccnc1)OCC1(O)Cn2c3ccccc3c3c4c(c5c6ccccc6n(c5c32)C1)C(=O)NC4` (centres unmarked) [Cpd 152, 12,13-{2-hydroxy-2-[(3-1H-imidazol-1-yl-prop-1-yl)carbamoyloxymethyl]-propan-1,3-yl}-6,7,12,13-tetrahydro-5-oxo-5H-indolo[2,3-a]pyrrolo[3,4-c]carbazole], the figure is 0.084 µM; as for `O=C1NC(=O)c2c1c1c3ccccc3n3c1c1c2c2ccccc2n1CC(O)(C(=O)NCc1ccncc1)C(O)C3` (centres unmarked) [Cpd 117, 12,13-{2-[(pyridin-4-ylmethyl)carbamoyl]-2,3-dihydroxy-butan-1,4-yl}-12,13-dihydro-5,7-dioxo-6H-indolo[2,3-a]pyrrolo[3,4-c]carbazole], 0.015 µM; as for `O=C(NCCc1ccccn1)OCC1Cn2c3ccccc3c3c4c(c5c6ccccc6n(c5c32)C1)C(=O)NC4` (centres unmarked) [Cpd 160, 12,13-{2-[(2-pyridin-2-yl-ethyl)carbamoyloxymethyl]-propan-1,3-yl}-6,7,12,13-tetrahydro-5-oxo-5H-indolo[2,3-a]pyrrolo[3,4-c]carbazole], more than 0.2 µM. Take `CC1(C)OCC2(CO1)Cn1c3ccccc3c3c4c(c5c6ccccc6n(c5c31)C2)C(=O)NC4` [Cpd 26]: the IC50 worked out at 0.095 µM. For `CC(C)OCc1ccc2c(c1)c1c3c(c4c5cc(Br)ccc5n5c4c1n2CC(CO)C5)C(=O)NC3` (centres unmarked) [Cpd 209, 3-bromo-9-(isopropoxymethyl)-12,13-(2-hydroxymethyl-propan-1,3-yl)-6,7,12,13-tetrahydro-5-oxo-5H-indolo[2,3-a]pyrrolo[3,4-c]carbazole], the IC50 turned out to be 0.07 µM. On to `COC1Cn2c3ccccc3c3c4c(c5c6ccccc6n(c5c32)CC1OC)C(=O)NC4=O` (centres unmarked) [Cpd 10, 12,13-(2,3-dimethoxy-butan-1,4-yl)-12,13-dihydro-5,7-dioxo-6H-indolo[2,3-a]pyrrolo[3,4-c]carbazole], for which the concentration for half-maximal inhibition (IC50) stood at 0.016 µM. As for `O=C1NCc2c1c1c3ccccc3n3c1c1c2c2ccccc2n1CCC(O)CC3` (centres unmarked) [Cpd 28, 12,13-(3-hydroxy-pentan-1,5-yl)-6,7,12,13-tetrahydro-5-oxo-5H-indolo[2,3-a]pyrrolo[3,4-c]carbazole], the figure is 0.058 µM; as for `Cc1ccc(CNC(=O)OC2CCn3c4ccccc4c4c5c(c6c7ccccc7n(c6c43)C2)C(=O)NC5=O)cc1` (centres unmarked) [Cpd 45, 12,13-{2-[(4-methyl-benzyl)carbamoyloxy]-butan-1,4-yl}-12,13-dihydro-5,7-dioxo-6H-indolo[2,3-a]pyrrolo[3,4-c]carbazole], 0.061 µM; as for `O=C1NCc2c1c1c3ccccc3n3c1c1c2c2ccccc2n1CC/C=C\CC3` [Cpd 5, 12,13-(hex-3-en-1,6-yl)-6,7,12,13-tetrahydro-5-oxo-5H-indolo[2,3-a]pyrrolo[3,4-c]carbazole], 0.039 µM. As for `CN(C)CCN(C)C(=O)OC1CCn2c3ccccc3c3c4c(c5c6ccccc6n(c5c32)C1)C(=O)NC4=O` (centres unmarked) [Cpd 67, 12,13-(2-{[N-methyl-N-(2-dimethylamino-ethyl)]carbamoyloxy}-butan-1,4-yl)-12,13-dihydro-5,7-dioxo-6H-indolo[2,3-a]pyrrolo[3,4-c]carbazole], the IC50 came out at 0.247 µM. As for `O=C(NCC1CCCCC1)OC1Cn2c3ccccc3c3c4c(c5c6ccccc6n(c5c32)CC1O)C(=O)NC4=O` (centres unmarked) [Cpd 81, 12,13-{2-[(cyclohexyl-methyl)carbamoyloxy]-3-hydroxy-butan-1,4-yl}-12,13-dihydro-5,7-dioxo-6H-indolo[2,3-a]pyrrolo[3,4-c]carbazole], the figure is 0.434 µM; as for `O=C1NC(=O)c2c1c1c3cc(-c4ccncc4)ccc3n3c1c1c2c2ccccc2n1CC(O)CC3` (centres unmarked) [Cpd 33, 3-pyridin-4-yl-12,13-(2-hydroxy-butan-1,4-yl)-12,13-dihydro-5,7-dioxo-6H-indolo[2,3-a]pyrrolo[3,4-c]carbazole], 0.04 µM; as for `O=C1NCc2c1c1c3cc(CN4CCOCC4)ccc3n3c1c1c2c2cc(CN4CCOCC4)ccc2n1CC(CO)C3` (centres unmarked) [Cpd 214, 3,9-bis-(morpholin-4-ylmethyl)-12,13-(2-hydroxymethyl-propan-1,3-yl)-6,7,12,13-tetrahydro-5-oxo-5H-indolo[2,3-a]pyrrolo[3,4-c]carbazole], more than 50 µM. Regarding `CC(C)(C)OC(=O)N1CCC(NC(=O)OCC2(O)Cn3c4ccccc4c4c5c(c6c7ccccc7n(c6c43)C2)C(=O)NC5)CC1` (centres unmarked) [Cpd 177, 12,13-{2-hydroxy-2-[(1-t-butoxycarbonyl-piperidin-4-yl)carbamoyloxymethyl]-propan-1,3-yl}-6,7,12,13-tetrahydro-5-oxo-5H-indolo[2,3-a]pyrrolo[3,4-c]carbazole], the concentration for half-maximal inhibition (IC50) came to 0.143 µM. For the compound `CN(C)CCCN1CCN(C(=O)OC2CCn3c4ccccc4c4c5c(c6c7ccccc7n(c6c43)C2)C(=O)NC5=O)CC1` (centres unmarked) [Cpd 68, 12,13-(2-{[4-(3-dimethylamino-prop-1-yl)piperazin-1-yl]carbonyloxy}-butan-1,4-yl)-12,13-dihydro-5,7-dioxo-6H-indolo[2,3-a]pyrrolo[3,4-c]carbazole], the IC50 stood at 0.433 µM.

For the compound `O=C1NC(=O)c2c1c1c3ccccc3n3c1c1c2c2ccccc2n1CC(OC(=O)N1CCN(c2ccc(O)cc2)CC1)CC3` (centres unmarked) [Cpd 58, 12,13-(2-{[4-(4-hydroxy-phenyl)piperazin-1-yl]carbonyloxy}-butan-1,4-yl)-12,13-dihydro-5,7-dioxo-6H-indolo[2,3-a]pyrrolo[3,4-c]carbazole], the IC50 stood at 0.098 µM. As to `O=C1NC(=O)c2c1c1c3cc(Br)ccc3n3c1c1c2c2ccccc2n1CC(O)CC3` (centres unmarked) [Cpd 31, 3-bromo-12,13-(2-hydroxy-butan-1,4-yl)-12,13-dihydro-5,7-dioxo-6H-indolo[2,3-a]pyrrolo[3,4-c]carbazole], the IC50 stood at 0.008 µM.

`Cc1ccc(CNC(=O)OCC2(O)Cn3c4ccccc4c4c5c(c6c7ccccc7n(c6c43)C2)C(=O)NC5)o1` (centres unmarked) [Cpd 141, 12,13-(2-hydroxy-2-{[(5-methyl-furan-2-yl)methyl]carbamoyloxymethyl}-propan-1,3-yl)-6,7,12,13h-tetrahydro-5-oxo-5H-indolo[2,3-a]pyrrolo[3,4-c]carbazole]: the IC50 is 0.117 µM. For the compound `O=C1NC(=O)c2c1c1c3ccccc3n3c1c1c2c2ccccc2n1CC(OC(=O)N1CCN(Cc2ccccc2)CC1)CC3` (centres unmarked) [Cpd 44, 12,13-{2-[(4-benzyl-piperazin-1-yl)carbonyloxy]-butan-1,4-yl}-12,13-dihydro-5,7-dioxo-6H-indolo[2,3-a]pyrrolo[3,4-c]carbazole], the IC50 came out at 0.122 µM.
